Results taken from the NIST ThermoML archive (doi:10.1021/je900478c).

Test: refractive index (Na D-line) (dimensionless); xn = mol fraction of the nth substance listed
Conditions: 101 kPa, Liquid, Standard Abbe refractometry

CCCCOCCO [2-butoxyethan-1-ol] + O
refractive index
Conditions	x1 = 0.1003	x1 = 0.2	x1 = 0.3	x1 = 0.4	x1 = 0.5	x1 = 0.6	x1 = 0.7	x1 = 0.7999	x1 = 0.9	x1 = 1
283.15 K	1.3785	1.3965	1.4061	1.4118	1.4156	1.41823	1.4199	1.4212	1.4221	1.4226
293.15 K	1.37658	1.39418	1.40355	1.4091	1.4128	1.41532	1.41695	1.41815	1.41905	1.4196
303.15 K	1.374	1.39115	1.40025	1.40562	1.4092	1.4116	1.41315	1.4143	1.4152	1.4157
313.15 K	1.37118	1.3878	1.39655	1.40175	1.4052	1.4075	1.40898	1.41012	1.41095	1.41139
323.15 K	–	1.38385	1.39248	1.3976	1.401	1.4032	1.40465	1.40575	1.4066	1.40701

CCCCOCCOCCO [3,6-dioxa-1-decanol] + O
refractive index
Conditions	x1 = 0.1	x1 = 0.2	x1 = 0.2999	x1 = 0.4	x1 = 0.5	x1 = 0.6	x1 = 0.7	x1 = 0.7998	x1 = 0.8999	x1 = 1
283.15 K	1.3916	1.41105	1.42035	1.42548	1.4286	1.4307	1.4323	1.4334	1.4342	1.4347
293.15 K	1.38935	1.40833	1.4174	1.42235	1.42535	1.42735	1.4289	1.4299	1.4307	1.4312
303.15 K	1.38705	1.4057	1.4146	1.41942	1.4224	1.42428	1.4258	1.42675	1.4275	1.42805
313.15 K	1.3842	1.4022	1.4109	1.41568	1.4185	1.4204	1.42185	1.42273	1.4234	1.424
323.15 K	1.3808	1.3982	1.4067	1.4113	1.41405	1.4159	1.41725	1.41815	1.4188	1.4194
